According to paper doi:10.1101/2022.12.25.521909v1 (biorxiv, 2022):

Molecular target: T1, human ABCC4 (ABCC4/MRP4) (Homo sapiens, UniProt O15439)
T1 sequence (O15439 1-1325): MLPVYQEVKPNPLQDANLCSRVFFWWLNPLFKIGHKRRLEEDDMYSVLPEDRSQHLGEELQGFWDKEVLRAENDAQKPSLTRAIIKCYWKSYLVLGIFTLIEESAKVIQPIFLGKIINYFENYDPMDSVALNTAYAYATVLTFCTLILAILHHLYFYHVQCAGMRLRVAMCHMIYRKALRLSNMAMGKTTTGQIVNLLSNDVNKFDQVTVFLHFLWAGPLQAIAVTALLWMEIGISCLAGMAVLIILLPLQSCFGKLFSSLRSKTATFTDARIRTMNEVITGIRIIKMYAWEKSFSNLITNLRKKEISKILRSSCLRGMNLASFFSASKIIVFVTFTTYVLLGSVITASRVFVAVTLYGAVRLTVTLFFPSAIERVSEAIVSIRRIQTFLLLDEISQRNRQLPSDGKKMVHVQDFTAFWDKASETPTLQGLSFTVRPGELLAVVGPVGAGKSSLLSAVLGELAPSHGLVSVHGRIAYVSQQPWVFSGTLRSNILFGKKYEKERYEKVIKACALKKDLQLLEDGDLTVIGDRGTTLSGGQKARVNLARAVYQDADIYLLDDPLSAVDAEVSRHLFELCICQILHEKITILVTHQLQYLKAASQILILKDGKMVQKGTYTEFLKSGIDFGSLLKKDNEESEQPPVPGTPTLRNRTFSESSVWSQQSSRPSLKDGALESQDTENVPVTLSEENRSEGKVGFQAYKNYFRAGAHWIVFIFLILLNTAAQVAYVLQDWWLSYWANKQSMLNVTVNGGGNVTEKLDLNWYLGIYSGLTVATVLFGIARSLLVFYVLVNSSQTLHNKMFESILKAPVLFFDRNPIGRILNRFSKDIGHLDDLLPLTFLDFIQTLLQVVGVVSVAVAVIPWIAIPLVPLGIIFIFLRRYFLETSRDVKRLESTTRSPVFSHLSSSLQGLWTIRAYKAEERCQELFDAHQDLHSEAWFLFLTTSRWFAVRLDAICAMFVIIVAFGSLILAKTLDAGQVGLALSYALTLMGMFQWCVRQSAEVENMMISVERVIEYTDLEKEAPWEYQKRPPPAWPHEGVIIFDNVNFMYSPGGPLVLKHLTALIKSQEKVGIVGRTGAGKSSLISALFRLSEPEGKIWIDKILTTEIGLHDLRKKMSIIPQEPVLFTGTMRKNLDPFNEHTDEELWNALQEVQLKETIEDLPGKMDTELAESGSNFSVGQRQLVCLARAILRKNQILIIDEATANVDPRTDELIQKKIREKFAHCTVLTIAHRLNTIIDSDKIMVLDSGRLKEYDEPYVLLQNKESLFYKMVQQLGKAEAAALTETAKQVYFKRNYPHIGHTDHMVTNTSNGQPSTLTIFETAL
Experiment: inhibition of basal ATPase activity, ABCC4 in lipid nanodiscs, logistic fit
Format: biochemical

- IC50: ~2.1 µM
SMILES: OCCN(CCO)c1nc(N2CCCCC2)c2nc(N(CCO)CCO)nc(N3CCCCC3)c2n1 [dipyridamole]
